# Reference: PMC10539329, “NLRP6 potentiates PI3K/AKT signalling by promoting autophagic degradation of p85α to drive tumorigenesis” (Nature Communications, 2023)
# Columns and labels:
# [1] = target: T1, recombinant NLRP6 (Homo sapiens, UniProt P59044); experiment: Biolayer interferometry (BLI) binding of peptides to recombinant NLRP6; conditions: 30 °C, PBS with 0.01% Tween-20
# T1 construct: DNA encoding full-length NLRP6 was codon optimized; His (N); MBP (N); made in house; host or cells: E. coli (DE3)
# T1 sequence (P59044 1-892): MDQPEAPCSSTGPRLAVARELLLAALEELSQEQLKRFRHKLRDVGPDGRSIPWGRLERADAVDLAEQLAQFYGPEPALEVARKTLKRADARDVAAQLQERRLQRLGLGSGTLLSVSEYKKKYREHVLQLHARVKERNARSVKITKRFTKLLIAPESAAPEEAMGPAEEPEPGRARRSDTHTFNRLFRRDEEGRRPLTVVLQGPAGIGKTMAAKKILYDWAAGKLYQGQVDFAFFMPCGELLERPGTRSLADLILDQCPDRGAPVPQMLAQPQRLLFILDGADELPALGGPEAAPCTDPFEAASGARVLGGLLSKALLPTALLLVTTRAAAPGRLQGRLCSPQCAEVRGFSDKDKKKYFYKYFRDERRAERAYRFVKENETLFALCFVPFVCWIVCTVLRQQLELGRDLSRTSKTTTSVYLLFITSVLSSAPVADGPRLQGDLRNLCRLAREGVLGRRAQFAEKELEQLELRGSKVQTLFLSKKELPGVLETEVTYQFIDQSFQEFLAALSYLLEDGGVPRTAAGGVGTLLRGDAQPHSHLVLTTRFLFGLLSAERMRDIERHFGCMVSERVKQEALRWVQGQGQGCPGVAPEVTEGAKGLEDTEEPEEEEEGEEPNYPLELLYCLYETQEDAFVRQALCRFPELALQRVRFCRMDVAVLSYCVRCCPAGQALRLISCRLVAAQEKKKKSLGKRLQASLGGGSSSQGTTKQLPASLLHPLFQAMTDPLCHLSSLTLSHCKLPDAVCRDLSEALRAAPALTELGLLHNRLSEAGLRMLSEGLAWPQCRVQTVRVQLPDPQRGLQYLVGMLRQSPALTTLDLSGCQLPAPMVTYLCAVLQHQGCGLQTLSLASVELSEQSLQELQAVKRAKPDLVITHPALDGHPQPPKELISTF
# Description: DNA encoding full-length NLRP6 was codon optimized and chemically synthesized by Genewiz (Soochow, China). The DNA sequence was subcloned into NdeI-XhoI sites of a pDB-His-MBP vector (kindly given by Pro. Chenggui Han, China Agricultural University, Beijing, China). Recombinant NLRP6 protein was expressed and purified following previous reports, with slight modifications. Briefly, the protein was expressed in E. coli (DE3) at 16 °C with 0.5 mM IPTG induction overnight. Then, the protein was purified by Ni affinity and gel filtration chromatography. The p85α WT and p85α mutant sequences were chemically synthesized and subcloned into BamHI-XhoI sites of a pGEX-6P-1 plasmid by GenScript (Nanjing, China). The E. coli (DE3) transformed with the plasmids were grown in LB medium at 37 °C. The culture medium was supplemented with 0.5 mM IPTG followed by incubation at 16 °C for 16–18 h. […] The protein extinction coefficient was calculated by ProtParam, and the protein concentration was determined by the ultraviolet spectrophotometry method.
# Eleven α-helical peptides were synthesized (Supplementary Data 7). […] The interaction between the peptides and NLRP6 was determined by BLI using an Octet Red 96 instrument (FortéBio, CA, USA). […] Responses (nanometre shift) were calculated using data that were double reference subtracted using reference wells and nonspecific binding of the biosensor to the analyte. […]
# [2] = system: nude mice with intracranially implanted tumour cells; experiment: Survival of nude mice with intracranial tumour after intratumoural peptide; assay type: in vivo, BALB/c nude mice; conditions: 0.25 mg/kg per injection (PepC, Pep9 H)
# Description: BALB/c nude mice were maintained and bred in a specific-pathogen free (SPF) environment, adhering to standard conditions of temperature (20–26 °C) and humidity (40–70%). They were subjected to a strict 12-h light cycle, with lights on at 08:00 a.m. and off at 08:00 p.m. No limitations were imposed on the sex of the experimental animals involved in this study. Cells expressing firefly luciferase mixed with Matrigel (Corning, NY, USA) were intracranially injected into 5- to 6-week-old female athymic nude mice. The intracranial injection point was at the cerebral cortex, 1 mm prior to coronal suture, 1 mm on the right side of the centreline, and 3 mm below the dura mater. Appropriate medications were provided to reduce pain. To monitor intracranial tumour growth, the animals were intraperitoneally injected with D-luciferin (Yeasen, #40902ES01) and anaesthetized with isoflurane. The images were captured using an In Vivo MS FX pro Imaging System (Bruker, MA, USA) or IVIS Lumina imaging station (Perkin Elmer, MA, USA). The results were reported as the total flux (photons/second). The mice were sacrificed at the indicated time points. The brains were removed, fixed in 4% paraformaldehyde, and embedded in paraffin.
# To determine the antitumour effect of the peptide in vitro, the peptide was incubated with cells for 24 h when the cells were grown to approximately 80% confluence. Cell viability was measured at the indicated time points. The cell lysates were collected for immunoprecipitation as described above. To determine the antitumour effect of the peptide in vivo, the peptide was stereotactically injected using identical coordinates of tumour implantation in 3 μl of PBS. Briefly, 3 weeks after intracranial tumour cell implantation, mice with similar tumour sizes and similar weights were selected and randomly arranged into five groups (n = 6): PBS, PepC (0.25 mg/kg TAT-PepC per injection), Pep9 low dose (Pep9 L, 0.05 mg/kg TAT-Pep9 per injection), Pep9 medium dose (Pep9 M, 0.1 mg/kg TAT-Pep9 per injection), and Pep9 high dose (Pep9 H, 0.25 mg/kg TAT-Pep9 per injection). Each mouse received intratumoural injection every 10 days (at Day 21, Day 31, Day 41, and Day 51), and tumour growth was monitored at Day 21, Day 41, and Day 56. The experiment was terminated at Day 80, and all the mice (if they were alive) were sacrificed as previously described.
sequence,measurement,setting,value
"SAEGYQYRALYD [Pep1, peptide found on the p85α SH3 domain; selected as the control named PepC]",binding to NLRP6 (in words),[1],did not interact with NLRP6
same,nude mice survival,"[2]; terminated Day 80, mouse 1",60 days
same,nude mice survival,"[2]; terminated Day 80, mouse 2",61 days
same,nude mice survival,"[2]; terminated Day 80, mouse 3, >= is status 0 (live)",59 days
same,nude mice survival,"[2]; terminated Day 80, mouse 4, >= is status 0 (live)",58 days
same,nude mice survival,"[2]; terminated Day 80, mouse 5, >= is status 0 (live)",58 days
same,nude mice survival,"[2]; terminated Day 80, mouse 6, >= is status 0 (live)",62 days
